Test [1] addresses T1, Nuclear receptor ROR-alpha (Mus musculus) (UniProt P51448).
T1 sequence (whole entry): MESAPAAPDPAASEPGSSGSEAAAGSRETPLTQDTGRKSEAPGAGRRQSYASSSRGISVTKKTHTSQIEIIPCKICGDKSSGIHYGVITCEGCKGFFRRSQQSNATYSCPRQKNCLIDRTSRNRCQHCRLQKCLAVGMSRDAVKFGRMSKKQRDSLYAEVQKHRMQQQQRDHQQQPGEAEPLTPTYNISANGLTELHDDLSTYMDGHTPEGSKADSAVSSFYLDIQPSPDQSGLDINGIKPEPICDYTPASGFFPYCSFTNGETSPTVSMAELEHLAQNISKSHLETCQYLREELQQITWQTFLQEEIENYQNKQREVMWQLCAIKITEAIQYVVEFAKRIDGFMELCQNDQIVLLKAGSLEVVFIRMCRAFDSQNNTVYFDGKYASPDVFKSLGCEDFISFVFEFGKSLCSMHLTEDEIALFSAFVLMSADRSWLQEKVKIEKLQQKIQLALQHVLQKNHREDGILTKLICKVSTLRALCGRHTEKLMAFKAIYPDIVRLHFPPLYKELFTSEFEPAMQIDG
Kind of test: Agonist activity at RORalpha in mouse NIH3T3 cells at 1 to 1000 uM incubated for 24 hrs by luminescence based assay. It counts as cell-based. The following applies: dose 1-1000 µM.

Test [2] concerns Sarcoma-180. Nature of the test: Elongation of circadian rhythms in dexamethasone-induced mouse Sarcoma-180 cells assessed as increase in Bmal1 period time at 5 uM measured for 1 mins at 10 min interval up to 96 hrs by bioluminescence based Bmal1 promoter-reporter gene assay (reference value: 25.70 +/- 0.30 hrs). It is filed as functional. The following applies: time hrs <=96.
For test [3], the system named is Sarcoma-180. Nature of the test: Cytotoxicity against mouse Sarcoma-180 cells assessed as reduction in cell proliferation at 1 uM measured up to 5 days by WST-8 assay. The note with it: time day <=5. It counts as functional, cell-based.
Test [4] relates to Sarcoma-180. Nature of the test: Cytotoxicity against mouse Sarcoma-180 cells assessed as reduction in cell proliferation by measuring growth rate at 1 uM measured after 3 days by WST-8 assay relative to control. It is filed as functional. For orientation: Tetrazolium assays rely on reduction of a dye to a coloured formazan, in cell work by metabolically active cells.
For test [5], the system named is NIH3T3. Nature of the test: Transcriptional upregulation of Bmal1 mRNA expression in dexamethasone-induced mouse NIH3T3 cells at 1 uM measured after 24 hrs by RT-qPCR analysis relative to control. It is filed as functional. A general note: Quantitative PCR measures a nucleic acid by following its amplification.
Test [6] has as its system NIH3T3. Kind of test: Transcriptional upregulation of […] mRNA expression in dexamethasone-induced mouse NIH3T3 cells at 5 uM measured after 24 hrs by qPCR analysis relative to control. It counts as functional.
Test [7] has as its target T2, Nuclear receptor ROR-alpha (Mus musculus, UniProt P51448).
T2 sequence (P51448 whole entry): T1 sequence (whole entry)
Nature of the test: Inverse agonist activity at RORalpha in mouse NIH3T3 cells incubated for 24 hrs by luminescence based assay. It is filed as cell-based.

The nature of test [8]: Induction of Bmal1 promotor activity in dexamethasone-induced mouse NIH3T3 cells transfected with Bmal1 promotor-reporter plasmids at 5 uM measured after 24 hrs by bioluminescence assay relative to control. It is filed as functional.
Test [9] relates to MEF. Kind of test: Elongation of circadian rhythms in dexamethasone-induced mouse embryonic fibroblasts expressing PER2-luc gene assessed as increase in PER2 period time at 1.67 uM measured for 1 mins at 10 min interval up to 96 hrs by bioluminescence based PER2 promoter-reporter gene assay (reference value: 23.17 +/- 0.10 hrs). The note with it: time hrs <=96. It is filed as functional. (In general: A reporter such as luciferase makes a cellular process visible.)

The subject of test [10] is MEF. Kind of test: Elongation of circadian rhythms in dexamethasone-induced mouse embryonic fibroblasts expressing PER2-luc gene assessed as increase in PER2 period time at 25 uM measured for 1 mins at 10 min interval up to 96 hrs by bioluminescence based PER2 promoter-reporter gene assay (reference value: 23.17 +/- 0.10 hrs). It is filed as functional. The following applies: time hrs <=96.

Test [11] deals with NIH3T3. Kind of test: Elongation of circadian rhythms in dexamethasone-induced mouse NIH3T3 cells assessed as increase in Bmal1 period time at 5 uM measured for 1 mins at 10 min interval up to 96 hrs by dual luciferase reporter gene assay (reference value: 25.02 +/- 0.15 hrs). The following applies: time hrs <=96. It counts as functional.
For test [12], the system named is NIH3T3. Kind of test: Transcriptional upregulation of Bmal1 mRNA expression in dexamethasone-induced mouse NIH3T3 cells at 5 uM measured after 24 hrs by RT-qPCR analysis relative to control. It is filed as functional.
Test [13] relates to NIH3T3. Nature of the test: Transcriptional upregulation of Rora mRNA expression in dexamethasone-induced mouse NIH3T3 cells at 5 uM measured after 24 hrs by qPCR analysis relative to control. It counts as functional.
Test [14] relates to NIH3T3. Kind of test: Elongation of circadian rhythms in dexamethasone-induced mouse NIH3T3 cells assessed as increase in Bmal1 period time at 1 uM measured for 1 mins at 10 min interval up to 96 hrs by dual luciferase reporter gene assay (reference value: 25.02 +/- 0.15 hrs). The following applies: time hrs <=96. It is filed as functional.
Test [15] deals with NIH3T3. Kind of test: Transcriptional upregulation of […] mRNA expression in dexamethasone-induced mouse NIH3T3 cells at 15 uM measured after 24 hrs by qPCR analysis relative to control. It is filed as functional.
In test [16] the test system is NIH3T3. Nature of the test: Transcriptional upregulation of Rora mRNA expression in dexamethasone-induced mouse NIH3T3 cells at 15 uM measured after 24 hrs by qPCR analysis relative to control. It is filed as functional.
Test [17] deals with MEF. Nature of the test: Elongation of circadian rhythms in dexamethasone-induced mouse embryonic fibroblasts expressing PER2-luc gene assessed as increase in PER2 period time at 1 uM measured for 1 mins at 10 min interval up to 96 hrs by bioluminescence based PER2 promoter-reporter gene assay (reference value: 23.17 +/- 0.10 hrs). It is filed as functional. The following applies: time hrs <=96.

Test [18] concerns Sarcoma-180. Kind of test: Elongation of circadian rhythms in dexamethasone-induced mouse Sarcoma-180 cells assessed as increase in Bmal1 period length at 1 to 5 uM measured for 1 mins at 10 min interval up to 96 hrs by bioluminescence based Bmal1 promoter-reporter gene assay. It counts as functional, cell-based. The note with it: dose 1-5 µM, time hrs <=96.
The subject of test [19] is Sarcoma-180. Nature of the test: Transcriptional upregulation of Bmal1 mRNA expression in dexamethasone-induced mouse Sarcoma-180 cells at 1 uM measured after 24 hrs by RT-qPCR analysis relative to control. It counts as functional.
Test [20] concerns Sarcoma-180. Nature of the test: Transcriptional upregulation of Bmal1 mRNA expression in dexamethasone-induced mouse Sarcoma-180 cells at 5 uM measured after 24 hrs by RT-qPCR analysis relative to control. It is filed as functional.
The test system of test [21] is Sarcoma-180. Kind of test: Elongation of circadian rhythms in dexamethasone-induced mouse Sarcoma-180 cells assessed as increase in Bmal1 period length measured for 1 mins at 10 min interval up to 96 hrs by bioluminescence based Bmal1 promoter-reporter gene assay. It is filed as functional, cell-based. The following applies: dose 1-5 µM, time hrs <=96.
Test [22] in a line: Induction of Bmal1 promotor activity in dexamethasone-induced mouse NIH3T3 cells transfected with Bmal1 promotor-reporter plasmids at 15 uM measured after 24 hrs by bioluminescence assay relative to control. It counts as functional.
Test [23] relates to Sarcoma-180. Nature of the test: Cytotoxicity against mouse Sarcoma-180 cells assessed as reduction in cell proliferation at 5 uM measured up to 5 days by WST-8 assay. It is filed as functional, cell-based. The note with it: time day <=5.
The test system of test [24] is MEF. Kind of test: Elongation of circadian rhythms in dexamethasone-induced mouse embryonic fibroblasts expressing PER2-luc gene assessed as increase in PER2 period time at 5 uM measured for 1 mins at 10 min interval up to 96 hrs by bioluminescence based PER2 promoter-reporter gene assay (reference value: 23.17 +/- 0.10 hrs). The following applies: time hrs <=96. It counts as functional.

In general, pIC50 refers to the IC50 on a negative log10 scale, so that one unit is a factor of ten.

pIC50: −log10 of the molar value. Calls of active or inactive are those of the source. The calls are words filed in the database; no cut-off is given here.

Take `CC(C)CCC[C@@H](C)[C@H]1CC[C@H]2C3=CC=C4C[C@@H](O)CC[C@]4(C)[C@H]3CC[C@]12C`: the outcome in test [1] (filed as agonist) was Active.
`CC1=C(CO)C(=O)O[C@@H]([C@@H](C)[C@H]2CC[C@H]3[C@@H]4C[C@H]5O[C@]56[C@@H](O)C=CC(=O)[C@]6(C)[C@H]4CC[C@]23C)C1`: the outcome in the test on Sarcoma-180 [2], in the test with Sarcoma-180 [3] and with Sarcoma-180 [4] (time 3.0 day) was Active. The outcome in test [1] was inactive.
Consider `CO[C@H]1CC(=O)[C@]2(C)[C@H]3CC[C@]4(C)[C@@H]([C@H](C)[C@H]5CC(C)=C(CO)C(=O)O5)CC[C@H]4[C@@H]3C[C@H]3O[C@]32[C@H]1O`, for which the Activity in the test on NIH3T3 [5] is 1.43 fold change; in the test with NIH3T3 [12] it was 1.75 fold change; with Sarcoma-180 [4] (time 3 day), 59.8%; in the test on Sarcoma-180 [21], “Dose-Dependent Effect”. Further, the “fold change (FC)” value in the test with NIH3T3 [6] is reported as 1.2; in test [8], 1.32; in the test on NIH3T3 [13], 1.61; in the test on NIH3T3 [15], 1.57; in the test on NIH3T3 [16] it was 1.68; with Sarcoma-180 [19], 1.34. The “fold change (FC)” value with Sarcoma-180 [20] is 2.13; in test [22], 1.83. This molecule also showed a pIC50 in [7] of 4.95. The Time in the test with MEF [9] is 24.17 h; in the test with MEF [10], 26.11 h; in the test on NIH3T3 [11], 26.06 h; with Sarcoma-180 [2] it was 31.7 h; with NIH3T3 [14], 25.01 h; with MEF [17], 22.98 h. Further, in the test on MEF [24], the Time is 25.36 h. For the same molecule, the outcome in the test with Sarcoma-180 [3], in the test with Sarcoma-180 [18] and in the test on Sarcoma-180 [23] was Active.

Values taken from ChEMBL document CHEMBL4825704, “Withanolide Derivative 2,3-Dihydro-3β-methoxy Withaferin-A Modulates the Circadian Clock via Interaction with RAR-Related Orphan Receptor α (RORa)” (J Nat Prod, 2021).
